Molecules are shown by their SMILES. Activity calls are given as the source filed them. The rule behind the calls is not given here.

Assay [1] concerns the target T1, Histone acetyltransferase p300 (Homo sapiens, UniProt Q09472). The experiment in a line: Inhibition of EP300 bromodomain (unknown origin) incubated for 20 mins by AlphaLISA method. (In general: In Alpha technology, singlet oxygen from a donor bead excites a nearby acceptor bead.)
The target of assay [2] is T2, CREB-binding protein/Histone acetyltransferase p300 (Homo sapiens) (UniProt Q09472+Q92793). In words: Inhibition of EP300/CBP bromodomain in human OPM-2 cells assessed as suppression of c-myc expression at <= 1 uM incubated for 3 days by Western blot analysis. It is filed as cell-based. Particulars: time 3.0 day. (In general: In western blotting, separated proteins are transferred to a membrane and probed.)

Assay [3] addresses T2, CREB-binding protein/Histone acetyltransferase p300 (Homo sapiens). In words: Inhibition of EP300/CBP bromodomain in human SCC-9 cells assessed as suppression of c-myc expression at 0.8 to 5 uM incubated for 3 days by Western blot analysis. The class given is cell-based. Particulars: dose 0.8-5 µM, time 3.0 day.
Assay [4] has as its system OPM-2. The experiment in a line: Induction of cell cycle arrest in human OPM-2 cells assessed as accumulation of cells at G1/G0 phase at 5 uM incubated for 48 hrs by PI staining based flow cytometry analysis (reference value: 34.25 %). The class given is functional.
Assay [5] has as its system OPM-2. The experiment in a line: Induction of apoptosis in human OPM-2 cells assessed as apoptotic cells at 3 uM incubated for 72 hrs by annexin V-FITC/PI staining based flow cytometry analysis. It is filed as functional.
In assay [6] the test system is CWR22R. In words: Antiproliferative activity against human 22Rv1 cells incubated for 5 days by CCK-8 method. It is filed as functional, cell-based. Particulars: 22Rv1, 120 h. Background: Tetrazolium assays rely on reduction of a dye to a coloured formazan, in cell work by metabolically active cells.
Assay [7] relates to SCC-9. In words: Antiproliferative activity against human SCC-9 cells incubated for 5 days by CCK-8 method. The class given is functional, cell-based. Particulars: SCC-9, 120 h.
The target of assay [8] is T2, CREB-binding protein/Histone acetyltransferase p300 (Homo sapiens). In words: Inhibition of EP300/CBP bromodomain in human 22Rv1 cells assessed as suppression of c-myc expression at 0.8 to 5 uM incubated for 3 days by Western blot analysis. The class given is cell-based. Particulars: dose 0.8-5 µM, time 3.0 day.
The subject of assay [9] is MCF7. The experiment in a line: Antiproliferative activity against human MCF7 cells incubated for 5 days by CCK-8 method. The class given is functional, cell-based. To be noted: MCF7, 120 h.
Assay [10] concerns OPM-2. The experiment in a line: Antiproliferative activity against human OPM-2 cells incubated for 5 days by CCK-8 method. It is filed as functional, cell-based. To be noted: OPM-2, 120 h.
The target of assay [11] is T1, Histone acetyltransferase p300. In words: Binding affinity to recombinant EP300 bromodomain (unknown origin) assessed as change in melting temperature by differential scanning fluorimetry method.
The target of assay [12] is T2, CREB-binding protein/Histone acetyltransferase p300 (Homo sapiens). The experiment in a line: Inhibition of EP300/CBP bromodomain in human OPM-2 cells assessed as suppression of c-myc expression incubated for 3 days by Western blot analysis. Particulars: dose 0.8-5 µM, time 3.0 day, DDE = dose-dependent effect. The class given is cell-based.

T2 sequence (Q09472 whole entry, looked up): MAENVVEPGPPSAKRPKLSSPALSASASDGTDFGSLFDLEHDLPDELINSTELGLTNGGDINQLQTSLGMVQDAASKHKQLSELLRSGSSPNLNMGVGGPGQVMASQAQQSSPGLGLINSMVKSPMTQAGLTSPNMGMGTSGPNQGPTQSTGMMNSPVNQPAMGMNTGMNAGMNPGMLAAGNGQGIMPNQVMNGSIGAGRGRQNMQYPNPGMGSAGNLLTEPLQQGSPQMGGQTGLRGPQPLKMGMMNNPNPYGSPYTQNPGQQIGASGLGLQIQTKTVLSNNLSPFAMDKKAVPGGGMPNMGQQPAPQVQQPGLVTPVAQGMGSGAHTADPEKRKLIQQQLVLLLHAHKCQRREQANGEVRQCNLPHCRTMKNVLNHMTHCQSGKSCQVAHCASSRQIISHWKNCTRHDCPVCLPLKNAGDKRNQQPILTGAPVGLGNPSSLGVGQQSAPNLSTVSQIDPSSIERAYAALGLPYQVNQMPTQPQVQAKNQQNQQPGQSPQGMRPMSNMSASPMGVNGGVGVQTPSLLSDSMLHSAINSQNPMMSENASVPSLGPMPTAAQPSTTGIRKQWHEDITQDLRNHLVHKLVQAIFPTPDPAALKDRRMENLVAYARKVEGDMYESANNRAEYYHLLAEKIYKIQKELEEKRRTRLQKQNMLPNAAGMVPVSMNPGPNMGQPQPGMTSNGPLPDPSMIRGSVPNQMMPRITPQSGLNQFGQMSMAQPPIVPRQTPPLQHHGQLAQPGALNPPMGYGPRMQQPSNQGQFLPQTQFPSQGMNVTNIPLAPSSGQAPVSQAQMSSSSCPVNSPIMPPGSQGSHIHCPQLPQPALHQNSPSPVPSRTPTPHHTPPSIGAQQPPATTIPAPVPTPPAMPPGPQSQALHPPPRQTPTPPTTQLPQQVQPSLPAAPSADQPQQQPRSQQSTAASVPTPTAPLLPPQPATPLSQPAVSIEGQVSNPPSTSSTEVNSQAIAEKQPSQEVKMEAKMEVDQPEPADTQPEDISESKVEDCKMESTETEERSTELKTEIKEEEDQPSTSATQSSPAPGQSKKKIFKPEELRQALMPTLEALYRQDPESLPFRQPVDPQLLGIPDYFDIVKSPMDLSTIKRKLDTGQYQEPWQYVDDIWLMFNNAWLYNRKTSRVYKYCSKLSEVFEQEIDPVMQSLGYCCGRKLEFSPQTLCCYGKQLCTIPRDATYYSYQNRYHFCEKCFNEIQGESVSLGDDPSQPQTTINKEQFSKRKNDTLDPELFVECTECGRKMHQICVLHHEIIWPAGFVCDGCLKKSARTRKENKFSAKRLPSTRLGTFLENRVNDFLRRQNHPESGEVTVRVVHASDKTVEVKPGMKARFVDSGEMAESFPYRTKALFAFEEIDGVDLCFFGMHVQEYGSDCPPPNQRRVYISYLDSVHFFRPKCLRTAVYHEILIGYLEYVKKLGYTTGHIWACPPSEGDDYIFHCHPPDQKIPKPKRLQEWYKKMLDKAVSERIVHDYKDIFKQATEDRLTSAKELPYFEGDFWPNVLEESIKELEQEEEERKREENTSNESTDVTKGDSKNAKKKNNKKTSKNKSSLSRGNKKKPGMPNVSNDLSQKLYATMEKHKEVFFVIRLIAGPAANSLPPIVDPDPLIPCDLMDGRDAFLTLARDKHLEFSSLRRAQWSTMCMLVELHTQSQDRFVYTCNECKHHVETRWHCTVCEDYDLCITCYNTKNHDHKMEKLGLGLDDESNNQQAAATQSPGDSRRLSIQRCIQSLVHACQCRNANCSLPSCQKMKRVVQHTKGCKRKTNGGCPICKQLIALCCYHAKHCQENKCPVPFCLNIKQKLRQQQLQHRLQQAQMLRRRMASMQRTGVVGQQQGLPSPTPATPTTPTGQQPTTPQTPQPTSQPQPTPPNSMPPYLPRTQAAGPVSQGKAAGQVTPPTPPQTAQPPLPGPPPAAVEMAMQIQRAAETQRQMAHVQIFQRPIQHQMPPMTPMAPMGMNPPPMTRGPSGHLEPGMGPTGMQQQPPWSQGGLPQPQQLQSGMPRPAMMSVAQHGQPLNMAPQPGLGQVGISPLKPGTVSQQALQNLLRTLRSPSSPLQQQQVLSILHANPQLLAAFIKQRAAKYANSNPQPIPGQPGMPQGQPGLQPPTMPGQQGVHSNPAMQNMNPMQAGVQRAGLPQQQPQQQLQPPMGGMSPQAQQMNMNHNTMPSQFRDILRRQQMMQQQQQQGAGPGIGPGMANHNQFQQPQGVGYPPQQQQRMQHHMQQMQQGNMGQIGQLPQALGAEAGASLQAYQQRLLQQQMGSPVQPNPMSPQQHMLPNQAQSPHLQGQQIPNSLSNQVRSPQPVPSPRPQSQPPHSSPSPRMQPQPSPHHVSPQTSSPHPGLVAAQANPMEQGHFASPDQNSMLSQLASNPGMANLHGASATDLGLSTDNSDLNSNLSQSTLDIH
T2 sequence (Q92793 whole entry, looked up): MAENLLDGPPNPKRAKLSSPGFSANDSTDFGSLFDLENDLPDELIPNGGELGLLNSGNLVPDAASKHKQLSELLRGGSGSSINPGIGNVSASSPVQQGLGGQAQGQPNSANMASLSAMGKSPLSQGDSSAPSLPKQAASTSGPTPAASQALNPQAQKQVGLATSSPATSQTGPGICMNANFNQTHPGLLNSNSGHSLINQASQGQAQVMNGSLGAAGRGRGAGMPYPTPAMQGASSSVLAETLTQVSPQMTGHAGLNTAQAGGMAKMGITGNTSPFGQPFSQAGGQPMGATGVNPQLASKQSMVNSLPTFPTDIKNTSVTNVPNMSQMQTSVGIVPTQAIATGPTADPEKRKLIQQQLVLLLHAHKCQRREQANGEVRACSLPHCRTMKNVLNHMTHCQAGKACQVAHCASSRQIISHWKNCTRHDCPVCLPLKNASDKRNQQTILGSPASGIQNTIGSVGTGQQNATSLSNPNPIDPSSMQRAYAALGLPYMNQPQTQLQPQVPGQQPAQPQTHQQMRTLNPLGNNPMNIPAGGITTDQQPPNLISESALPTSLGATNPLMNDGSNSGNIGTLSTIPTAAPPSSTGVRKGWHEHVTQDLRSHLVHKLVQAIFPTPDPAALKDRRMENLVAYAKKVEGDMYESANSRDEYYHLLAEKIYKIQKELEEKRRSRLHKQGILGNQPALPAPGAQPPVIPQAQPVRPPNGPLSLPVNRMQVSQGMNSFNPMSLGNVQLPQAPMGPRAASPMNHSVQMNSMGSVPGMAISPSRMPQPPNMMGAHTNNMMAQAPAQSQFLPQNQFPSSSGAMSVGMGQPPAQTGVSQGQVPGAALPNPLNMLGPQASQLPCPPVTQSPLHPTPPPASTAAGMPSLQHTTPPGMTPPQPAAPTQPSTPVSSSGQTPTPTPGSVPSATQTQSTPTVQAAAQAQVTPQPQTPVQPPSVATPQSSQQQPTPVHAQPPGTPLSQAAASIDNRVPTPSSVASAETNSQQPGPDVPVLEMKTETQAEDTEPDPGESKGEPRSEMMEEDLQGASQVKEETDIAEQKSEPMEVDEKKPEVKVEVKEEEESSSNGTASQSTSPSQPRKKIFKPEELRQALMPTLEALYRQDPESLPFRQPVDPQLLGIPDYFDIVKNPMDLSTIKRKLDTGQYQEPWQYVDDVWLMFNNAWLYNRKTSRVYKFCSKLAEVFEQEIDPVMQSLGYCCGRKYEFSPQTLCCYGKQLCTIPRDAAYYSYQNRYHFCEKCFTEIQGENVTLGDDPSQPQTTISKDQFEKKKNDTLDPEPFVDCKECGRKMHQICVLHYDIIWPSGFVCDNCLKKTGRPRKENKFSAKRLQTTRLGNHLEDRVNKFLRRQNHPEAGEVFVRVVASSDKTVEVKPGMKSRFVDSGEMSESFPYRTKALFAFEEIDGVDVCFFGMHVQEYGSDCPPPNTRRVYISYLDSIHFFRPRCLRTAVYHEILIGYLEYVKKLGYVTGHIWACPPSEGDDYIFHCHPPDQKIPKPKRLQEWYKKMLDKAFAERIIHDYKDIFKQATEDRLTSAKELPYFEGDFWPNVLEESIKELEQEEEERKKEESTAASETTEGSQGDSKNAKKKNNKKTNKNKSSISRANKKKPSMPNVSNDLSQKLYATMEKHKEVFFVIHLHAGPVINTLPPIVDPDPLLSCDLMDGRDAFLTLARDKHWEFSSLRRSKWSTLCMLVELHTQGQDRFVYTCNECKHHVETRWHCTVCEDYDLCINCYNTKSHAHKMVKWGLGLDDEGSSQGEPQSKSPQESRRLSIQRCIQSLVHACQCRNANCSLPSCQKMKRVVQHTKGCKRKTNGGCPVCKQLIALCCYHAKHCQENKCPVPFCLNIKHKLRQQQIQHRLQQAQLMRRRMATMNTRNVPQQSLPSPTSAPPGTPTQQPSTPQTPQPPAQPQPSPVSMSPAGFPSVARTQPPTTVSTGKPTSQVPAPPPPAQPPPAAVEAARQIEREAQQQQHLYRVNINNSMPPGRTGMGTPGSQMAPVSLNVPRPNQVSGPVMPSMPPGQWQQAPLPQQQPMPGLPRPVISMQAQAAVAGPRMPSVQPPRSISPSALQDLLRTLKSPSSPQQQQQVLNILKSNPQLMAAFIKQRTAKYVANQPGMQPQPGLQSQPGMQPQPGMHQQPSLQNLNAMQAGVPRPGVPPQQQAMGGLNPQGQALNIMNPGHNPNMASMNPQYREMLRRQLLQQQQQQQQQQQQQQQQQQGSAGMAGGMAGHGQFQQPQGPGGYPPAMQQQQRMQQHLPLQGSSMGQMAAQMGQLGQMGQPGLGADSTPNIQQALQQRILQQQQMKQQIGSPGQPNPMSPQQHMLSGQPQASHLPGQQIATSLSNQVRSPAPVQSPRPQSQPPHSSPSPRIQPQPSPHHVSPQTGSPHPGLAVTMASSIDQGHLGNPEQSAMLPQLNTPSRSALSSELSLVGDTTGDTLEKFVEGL
T1 sequence (Q09472 whole entry): as the sequence (Q09472 whole entry, looked up) above

For the compound `COc1ccc(CCc2nc3cc(-c4c(C)noc4C)ccc3n2C2CCN(C(C)=O)CC2)cc1Cl`, the IC50 (as a rule, the concentration at which inhibition is half-maximal) in [1] came out at 94 nM.
Turning to `COc1ccc(CCc2nc3cc(-c4c(C)noc4C)ccc3n2C2CCC(F)(F)CC2)cc1Cl`, in assay [1], the IC50 was found to be 83 nM.
Consider `COc1ccc(N2C(=O)C[C@H]2c2nc3cc(-c4c(C)noc4C)ccc3n2[C@H]2CC[C@H](OC)CC2)cc1Cl`, for which the IC50 in assay [1] was 49 nM; in [6], 3740 nM; in [7], 1850 nM; in assay [9], 960 nM; in assay [10] it was 1090 nM. The result in assay [2], in [3] and in [8] was Active. Further, the Activity in assay [4] was 90%; in assay [5] it was 38.27%.
With `COc1ccc(CCc2nc3cc(S(C)(=O)=O)ccc3n2C[C@H](C)N2CCOCC2)cc1Cl`, the ΔTm (usually the change in melting temperature against a reference sample) in [11] turned out to be 1.07 °C.
As for `COc1ccc(CCc2nc3cc(-c4c(C)noc4C)ccc3n2[C@H]2CC[C@H](O)CC2)cc1Cl`, the IC50 in [1] worked out at 48 nM; in assay [6], 6830 nM; in assay [7], 3680 nM; in assay [9], 2820 nM; in assay [10], 1390 nM. Further, the outcome in assay [2] was Active. In addition, the Activity was determined as 90% in assay [4] and 28.49% in assay [5].
Take `COc1ccc(CCc2nc3cc(-c4c(C)noc4C)ccc3n2[C@H]2CC[C@H](OC)CC2)cc1Cl`: the IC50 is 97 nM in assay [1]; above 10000 nM in assay [6]; 2550 nM in assay [7]; 5650 nM in [9]; 2290 nM in assay [10]. In addition, the Activity result in assay [12] was “Dde”.
As for `COc1ccc(CCc2nc3cc(NC(C)=O)ccc3n2C[C@H](C)N2CCOCC2)cc1Cl`, the ΔTm in assay [11] is 2.97 °C.
Consider `Cc1noc(C)c1-c1ccc2c(c1)nc(C1CC1c1ccccc1)n2[C@H]1CC[C@H](O)CC1` (stereo partly drawn), for which the IC50 in [1] amounted to 263 nM.
For `COc1ccc(CCc2nc3cc(NS(C)(=O)=O)ccc3n2C[C@H](C)N2CCOCC2)cc1Cl`, in assay [11], the ΔTm was determined as 2.51 °C.
Turning to `COc1ccc(CCc2nc3cc(-c4cnn(C)c4)ccc3n2C[C@H](C)N2CCOCC2)cc1Cl`, in assay [11], the ΔTm stood at 2.95 °C.
Regarding `COc1ccc(CCc2nc3cc(CC#N)ccc3n2C[C@H](C)N2CCOCC2)cc1Cl`, the ΔTm in assay [11] is 1.44 °C.
On the same count and under the same terms, as for `CNC(=O)c1ccc2c(c1)nc(CCc1ccc(OC)c(Cl)c1)n2C[C@H](C)N1CCOCC1`, the figure is 2.1 °C; as for `COc1ccc(CCc2nc3cc(C(C)=O)ccc3n2C[C@H](C)N2CCOCC2)cc1Cl`, 4.1 °C; as for `CNC(=O)Nc1ccc2c(c1)nc(CCc1ccc(OC)c(Cl)c1)n2C[C@H](C)N1CCOCC1`, 3.53 °C.
The same measure, in the same setting: as for `COc1ccc(CCc2nc3cc(C4(C)COC4)ccc3n2C[C@H](C)N2CCOCC2)cc1Cl`, the figure is 2.21 °C.
In the case of `COc1ccc(CCc2nc3cc(-c4c(C)noc4C)ccc3n2C[C@H](C)N2CCOCC2)cc1Cl`, the ΔTm in assay [11] came to 4.5 °C. The IC50 in assay [6] is above 10000 nM; in [7] it was 6420 nM; in [9], 2390 nM; in assay [10], 2640 nM.
In the case of `COc1ccc(N2C(=O)C[C@@H]2c2nc3cc(-c4c(C)noc4C)ccc3n2[C@H]2CC[C@H](OC)CC2)cc1Cl`, the IC50 in assay [1] is 81 nM; in assay [6] it was 3680 nM; in assay [7] it was 3170 nM; in [9] it was 1990 nM; in assay [10], 1540 nM. For the same compound, in assay [12], the Activity result was “Dde”.
The compound `COc1ccc(CCc2nc3cc(-c4c(C)noc4C)ccc3n2C2CCN(S(C)(=O)=O)CC2)cc1Cl` came in with an IC50 in assay [1] of 148 nM.
Compound `COc1ccc2c(Cc3nc4cc(-c5c(C)noc5C)ccc4n3[C@H]3CC[C@H](O)CC3)cc(=O)oc2c1` came in with an IC50 in assay [1] of 48 nM.
Same read-out and setting: with `COc1ccc(CCc2nc3cc(-c4c(C)noc4C)ccc3n2[C@H]2C[C@H](O)C2)cc1Cl` the figure was 155 nM.
The same measure, in the same setting: as for `COc1ccc(CCc2nc3cc(-c4c(C)noc4C)ccc3n2C2CC(C)(C)OC(C)(C)C2)cc1Cl`, the figure is 112 nM.
The same measure, in the same setting: as for `COc1ccc(CCc2nc3cc(-c4c(C)noc4C)ccc3n2[C@H]2CC[C@H](C(F)(F)F)CC2)cc1Cl`, the figure is 894 nM.
For the compound `COc1ccc(CCc2nc3cc(-c4cnn(C)n4)ccc3n2C[C@H](C)N2CCOCC2)cc1Cl`, the ΔTm in assay [11] came to 4.34 °C.

The record behind these values is ChEMBL document CHEMBL5120873, “Discovery of novel benzimidazole derivatives as potent p300 bromodomain inhibitors with anti-proliferative activity in multiple cancer cells” (Bioorg Med Chem, 2022).
